Key:
Assay in all cases: KINOMEscan
FGFR1 = target: T1, FGFR1 (Homo sapiens, UniProt P11362); assay type: binding; settings: read-out: % Ctrl
T1 construct: purchased DiscoveRx KINOMEscan

PIK3CG = target: T2, PIK3CG (Homo sapiens, UniProt P48736); assay type: binding; settings: read-out: % Ctrl
T2 construct: purchased DiscoveRx KINOMEscan

ARK5 = target: T3, ARK5 (Homo sapiens, UniProt O60285); assay type: binding; settings: read-out: % Ctrl
T3 construct: purchased DiscoveRx KINOMEscan

RPS6KA5(KD1-N-t.) = target: T4, RPS6KA5(KD1-N-t.) (Homo sapiens, UniProt O75582); assay type: binding; settings: read-out: % Ctrl
T4 construct: RPS6KA5(KD1-N-t.); purchased DiscoveRx KINOMEscan

PDGFRB = target: T5, PDGFRB (Homo sapiens, UniProt P09619); assay type: binding; settings: read-out: % Ctrl
T5 construct: purchased DiscoveRx KINOMEscan

MERTK = target: T6, MERTK (Homo sapiens, UniProt Q12866); assay type: binding; settings: read-out: % Ctrl
T6 construct: purchased DiscoveRx KINOMEscan

ASK1 = target: T7, ASK1 (Homo sapiens, UniProt Q99683); assay type: binding; settings: read-out: % Ctrl
T7 construct: purchased DiscoveRx KINOMEscan

NEK7 = target: T8, NEK7 (Homo sapiens, UniProt Q8TDX7); assay type: binding; settings: read-out: % Ctrl
T8 construct: purchased DiscoveRx KINOMEscan

PIK3CA = target: T9, PIK3CA (Homo sapiens, UniProt P42336); assay type: binding; settings: read-out: % Ctrl
T9 construct: purchased DiscoveRx KINOMEscan

SNARK = target: T10, SNARK (Homo sapiens, UniProt Q9H093); assay type: binding; settings: read-out: % Ctrl
T10 construct: purchased DiscoveRx KINOMEscan

NEK1 = target: T11, NEK1 (Homo sapiens, UniProt Q96PY6); assay type: binding; settings: read-out: % Ctrl
T11 construct: purchased DiscoveRx KINOMEscan

EPHA8 = target: T12, EPHA8 (Homo sapiens, UniProt P29322); assay type: binding; settings: read-out: % Ctrl
T12 construct: purchased DiscoveRx KINOMEscan

EPHA1 = target: T13, EPHA1 (Homo sapiens, UniProt P21709); assay type: binding; settings: read-out: % Ctrl
T13 construct: purchased DiscoveRx KINOMEscan

PIK3CA(H1047L) = target: T14, PIK3CA(H1047L) (Homo sapiens, UniProt P42336, H1047L); assay type: binding; settings: read-out: % Ctrl
T14 construct: purchased DiscoveRx KINOMEscan

CAMK2G = target: T15, CAMK2G (Homo sapiens, UniProt Q13555); assay type: binding; settings: read-out: % Ctrl
T15 construct: purchased DiscoveRx KINOMEscan

LIMK1 = target: T16, LIMK1 (Homo sapiens, UniProt P53667); assay type: binding; settings: read-out: % Ctrl
T16 construct: purchased DiscoveRx KINOMEscan

MKK7 = target: T17, MKK7 (Homo sapiens, UniProt O14733); assay type: binding; settings: read-out: % Ctrl
T17 construct: purchased DiscoveRx KINOMEscan

S6K1 = target: T18, S6K1 (Homo sapiens, UniProt P23443); assay type: binding; settings: read-out: % Ctrl
T18 construct: purchased DiscoveRx KINOMEscan

KIT(D816V) = target: T19, KIT(D816V) (Homo sapiens, UniProt P10721, D816V); assay type: binding; settings: read-out: % Ctrl
T19 construct: purchased DiscoveRx KINOMEscan

NEK10 = target: T20, NEK10 (Homo sapiens, UniProt Q6ZWH5); assay type: binding; settings: read-out: % Ctrl
T20 construct: purchased DiscoveRx KINOMEscan

RSK4(KD1-N-t.) = target: T21, RSK4(KD1-N-t.) (Homo sapiens, UniProt Q9UK32); assay type: binding; settings: read-out: % Ctrl
T21 construct: RSK4(KD1-N-t.); purchased DiscoveRx KINOMEscan

PLK4 = target: T22, PLK4 (Homo sapiens, UniProt O00444); assay type: binding; settings: read-out: % Ctrl
T22 construct: purchased DiscoveRx KINOMEscan

EGFR(S752-I759del) = target: T23, EGFR(S752-I759del) (Homo sapiens, UniProt P00533, DEL752-759); assay type: binding; settings: read-out: % Ctrl
T23 construct: purchased DiscoveRx KINOMEscan

HIPK3 = target: T24, HIPK3 (Homo sapiens, UniProt Q9H422); assay type: binding; settings: read-out: % Ctrl
T24 construct: purchased DiscoveRx KINOMEscan

CDK4-cyclinD1 = target: T25, CDK4-cyclinD1 (Homo sapiens, UniProt P11802); assay type: binding; settings: read-out: % Ctrl
T25 construct: purchased DiscoveRx KINOMEscan

PRKX = target: T26, PRKX (Homo sapiens, UniProt P51817); assay type: binding; settings: read-out: % Ctrl
T26 construct: purchased DiscoveRx KINOMEscan

IRAK3 = target: T27, IRAK3 (Homo sapiens, UniProt Q9Y616); assay type: binding; settings: read-out: % Ctrl
T27 construct: purchased DiscoveRx KINOMEscan

TAOK1 = target: T28, TAOK1 (Homo sapiens, UniProt Q7L7X3); assay type: binding; settings: read-out: % Ctrl
T28 construct: purchased DiscoveRx KINOMEscan

FLT3(ITD,D835V) = assay type: binding, human; settings: 1 µM
PRKCI = target: T29, PRKCI (Homo sapiens, UniProt P41743); assay type: binding; settings: read-out: % Ctrl
T29 construct: purchased DiscoveRx KINOMEscan

FES = target: T30, FES (Homo sapiens, UniProt P07332); assay type: binding; settings: read-out: % Ctrl
T30 construct: purchased DiscoveRx KINOMEscan

STK16 = target: T31, STK16 (Homo sapiens, UniProt O75716); assay type: binding; settings: read-out: % Ctrl
T31 construct: purchased DiscoveRx KINOMEscan

CDK9 = target: T32, CDK9 (Homo sapiens, UniProt P50750); assay type: binding; settings: read-out: % Ctrl
T32 construct: purchased DiscoveRx KINOMEscan

PRKCD = target: T33, PRKCD (Homo sapiens, UniProt Q05655); assay type: binding; settings: read-out: % Ctrl
T33 construct: purchased DiscoveRx KINOMEscan

PIK3CA(H1047Y) = target: T34, PIK3CA(H1047Y) (Homo sapiens, UniProt P42336, H1047Y); assay type: binding; settings: read-out: % Ctrl
T34 construct: purchased DiscoveRx KINOMEscan

AKT2 = target: T35, AKT2 (Homo sapiens, UniProt P31751); assay type: binding; settings: read-out: % Ctrl
T35 construct: purchased DiscoveRx KINOMEscan

MEK4 = target: T36, MEK4 (Homo sapiens, UniProt P45985); assay type: binding; settings: read-out: % Ctrl
T36 construct: purchased DiscoveRx KINOMEscan

PKAC-beta = target: T37, PKAC-beta (Homo sapiens, UniProt P22694); assay type: binding; settings: read-out: % Ctrl
T37 construct: purchased DiscoveRx KINOMEscan

KIT-autoi. = target: T38, KIT-autoi. (Homo sapiens, UniProt P10721); assay type: binding; settings: read-out: % Ctrl
T38 construct: purchased DiscoveRx KINOMEscan

MLK3 = target: T39, MLK3 (Homo sapiens, UniProt Q16584); assay type: binding; settings: read-out: % Ctrl
T39 construct: purchased DiscoveRx KINOMEscan

IKK-epsilon = target: T40, IKK-epsilon (Homo sapiens, UniProt Q14164); assay type: binding; settings: read-out: % Ctrl
T40 construct: purchased DiscoveRx KINOMEscan

T3 sequence (O60285 whole entry): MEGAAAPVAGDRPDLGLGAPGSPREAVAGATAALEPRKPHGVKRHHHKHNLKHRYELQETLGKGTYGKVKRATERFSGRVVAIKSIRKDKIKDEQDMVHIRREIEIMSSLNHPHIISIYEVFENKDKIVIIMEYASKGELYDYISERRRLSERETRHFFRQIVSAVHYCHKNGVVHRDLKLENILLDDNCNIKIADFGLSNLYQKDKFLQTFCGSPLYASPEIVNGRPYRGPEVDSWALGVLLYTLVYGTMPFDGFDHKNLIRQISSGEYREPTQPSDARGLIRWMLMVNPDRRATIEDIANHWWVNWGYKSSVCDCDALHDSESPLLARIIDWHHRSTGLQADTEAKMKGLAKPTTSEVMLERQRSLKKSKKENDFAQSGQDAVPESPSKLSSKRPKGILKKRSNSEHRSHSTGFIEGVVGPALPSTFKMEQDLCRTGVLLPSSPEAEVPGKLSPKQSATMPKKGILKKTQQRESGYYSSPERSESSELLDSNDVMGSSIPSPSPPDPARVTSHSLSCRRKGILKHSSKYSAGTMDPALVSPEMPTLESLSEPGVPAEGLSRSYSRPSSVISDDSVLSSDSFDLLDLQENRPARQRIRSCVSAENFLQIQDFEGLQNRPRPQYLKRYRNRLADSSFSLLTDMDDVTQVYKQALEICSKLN
T14 sequence (P42336 whole entry H1047L): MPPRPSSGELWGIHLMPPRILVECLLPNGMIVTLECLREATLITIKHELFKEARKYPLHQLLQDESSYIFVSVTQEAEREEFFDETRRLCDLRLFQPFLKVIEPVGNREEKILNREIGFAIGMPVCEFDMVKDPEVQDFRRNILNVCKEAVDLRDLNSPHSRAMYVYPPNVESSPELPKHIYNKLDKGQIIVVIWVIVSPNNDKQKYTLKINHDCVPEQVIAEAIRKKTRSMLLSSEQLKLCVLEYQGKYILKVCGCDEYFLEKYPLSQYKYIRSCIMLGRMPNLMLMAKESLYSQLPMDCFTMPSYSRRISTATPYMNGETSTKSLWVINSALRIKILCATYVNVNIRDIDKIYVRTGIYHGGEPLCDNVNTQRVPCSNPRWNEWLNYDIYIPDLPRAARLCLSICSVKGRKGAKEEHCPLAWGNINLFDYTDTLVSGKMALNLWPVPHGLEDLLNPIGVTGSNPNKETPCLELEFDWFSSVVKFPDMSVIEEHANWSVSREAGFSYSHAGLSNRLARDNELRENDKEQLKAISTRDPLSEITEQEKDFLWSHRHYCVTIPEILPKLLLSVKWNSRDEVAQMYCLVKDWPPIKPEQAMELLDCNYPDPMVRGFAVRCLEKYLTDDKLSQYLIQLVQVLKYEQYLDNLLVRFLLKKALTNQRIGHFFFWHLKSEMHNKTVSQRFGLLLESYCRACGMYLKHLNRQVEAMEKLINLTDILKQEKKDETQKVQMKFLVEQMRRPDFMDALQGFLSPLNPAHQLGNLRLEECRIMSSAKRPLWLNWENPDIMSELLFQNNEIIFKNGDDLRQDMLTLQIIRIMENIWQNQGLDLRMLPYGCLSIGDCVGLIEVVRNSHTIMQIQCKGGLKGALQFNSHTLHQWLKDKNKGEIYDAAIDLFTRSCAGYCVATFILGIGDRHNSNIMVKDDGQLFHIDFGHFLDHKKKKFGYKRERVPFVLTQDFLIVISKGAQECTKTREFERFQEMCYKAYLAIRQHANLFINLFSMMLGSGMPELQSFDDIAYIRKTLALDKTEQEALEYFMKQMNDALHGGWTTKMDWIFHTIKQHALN
T28 sequence (Q7L7X3 whole entry): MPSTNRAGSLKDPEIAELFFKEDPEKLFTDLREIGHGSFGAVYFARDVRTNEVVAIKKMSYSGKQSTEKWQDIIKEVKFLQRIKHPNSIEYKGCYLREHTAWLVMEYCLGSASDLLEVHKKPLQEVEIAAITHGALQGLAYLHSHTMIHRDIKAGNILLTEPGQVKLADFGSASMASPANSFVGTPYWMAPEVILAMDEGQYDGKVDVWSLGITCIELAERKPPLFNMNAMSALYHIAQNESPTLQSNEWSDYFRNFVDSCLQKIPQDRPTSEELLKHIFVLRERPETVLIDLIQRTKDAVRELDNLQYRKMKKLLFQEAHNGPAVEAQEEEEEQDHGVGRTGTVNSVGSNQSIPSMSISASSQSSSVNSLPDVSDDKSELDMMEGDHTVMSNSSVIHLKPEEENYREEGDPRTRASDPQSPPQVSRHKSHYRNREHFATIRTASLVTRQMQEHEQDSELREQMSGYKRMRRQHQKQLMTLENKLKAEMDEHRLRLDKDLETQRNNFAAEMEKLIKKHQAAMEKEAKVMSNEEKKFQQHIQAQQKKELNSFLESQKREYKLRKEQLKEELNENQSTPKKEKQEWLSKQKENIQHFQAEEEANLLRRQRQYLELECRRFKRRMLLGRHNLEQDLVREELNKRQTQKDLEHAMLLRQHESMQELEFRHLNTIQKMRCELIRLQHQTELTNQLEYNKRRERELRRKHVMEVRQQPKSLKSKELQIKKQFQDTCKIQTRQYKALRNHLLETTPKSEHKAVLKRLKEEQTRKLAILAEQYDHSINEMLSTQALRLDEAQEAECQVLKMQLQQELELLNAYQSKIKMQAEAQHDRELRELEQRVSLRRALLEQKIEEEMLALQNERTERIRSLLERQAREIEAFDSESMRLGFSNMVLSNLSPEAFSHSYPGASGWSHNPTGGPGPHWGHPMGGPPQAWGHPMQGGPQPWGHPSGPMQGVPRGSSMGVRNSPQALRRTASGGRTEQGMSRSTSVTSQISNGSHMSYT
T17 sequence (O14733 whole entry): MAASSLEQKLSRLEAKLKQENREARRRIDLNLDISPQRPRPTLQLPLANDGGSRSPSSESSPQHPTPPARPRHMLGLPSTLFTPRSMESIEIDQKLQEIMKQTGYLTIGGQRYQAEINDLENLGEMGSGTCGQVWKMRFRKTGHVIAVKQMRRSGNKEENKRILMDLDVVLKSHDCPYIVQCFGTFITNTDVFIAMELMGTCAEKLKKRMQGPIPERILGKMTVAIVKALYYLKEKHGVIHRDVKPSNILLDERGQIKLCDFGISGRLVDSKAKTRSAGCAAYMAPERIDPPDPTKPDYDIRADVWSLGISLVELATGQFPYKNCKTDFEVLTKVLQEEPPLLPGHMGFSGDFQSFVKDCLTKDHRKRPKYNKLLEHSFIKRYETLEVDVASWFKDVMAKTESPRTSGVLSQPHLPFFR
T38 sequence (P10721 26-976): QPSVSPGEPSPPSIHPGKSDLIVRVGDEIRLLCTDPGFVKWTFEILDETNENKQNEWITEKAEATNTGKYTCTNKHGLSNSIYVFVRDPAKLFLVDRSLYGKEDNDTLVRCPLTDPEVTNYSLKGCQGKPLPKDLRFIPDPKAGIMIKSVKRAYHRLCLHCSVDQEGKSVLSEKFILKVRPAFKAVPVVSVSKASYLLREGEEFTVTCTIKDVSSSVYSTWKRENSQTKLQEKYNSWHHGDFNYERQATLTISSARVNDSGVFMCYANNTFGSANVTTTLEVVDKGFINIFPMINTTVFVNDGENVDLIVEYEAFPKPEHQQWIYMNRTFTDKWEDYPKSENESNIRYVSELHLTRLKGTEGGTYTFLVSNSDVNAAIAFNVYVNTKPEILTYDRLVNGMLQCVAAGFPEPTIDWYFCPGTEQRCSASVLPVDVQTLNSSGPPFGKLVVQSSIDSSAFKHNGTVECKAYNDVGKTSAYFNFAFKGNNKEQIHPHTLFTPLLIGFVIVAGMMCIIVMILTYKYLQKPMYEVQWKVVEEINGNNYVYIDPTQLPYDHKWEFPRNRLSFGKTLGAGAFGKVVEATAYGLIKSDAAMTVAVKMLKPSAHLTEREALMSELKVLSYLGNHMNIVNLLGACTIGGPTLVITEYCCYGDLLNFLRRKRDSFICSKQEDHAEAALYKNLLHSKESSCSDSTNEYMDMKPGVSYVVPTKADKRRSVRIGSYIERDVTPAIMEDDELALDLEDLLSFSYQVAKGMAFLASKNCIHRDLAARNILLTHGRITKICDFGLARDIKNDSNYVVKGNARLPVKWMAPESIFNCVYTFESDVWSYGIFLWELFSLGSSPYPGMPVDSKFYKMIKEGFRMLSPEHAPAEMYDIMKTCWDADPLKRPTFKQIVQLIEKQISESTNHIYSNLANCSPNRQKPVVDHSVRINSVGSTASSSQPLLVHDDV
T4 sequence (O75582 1-387 limits assumed): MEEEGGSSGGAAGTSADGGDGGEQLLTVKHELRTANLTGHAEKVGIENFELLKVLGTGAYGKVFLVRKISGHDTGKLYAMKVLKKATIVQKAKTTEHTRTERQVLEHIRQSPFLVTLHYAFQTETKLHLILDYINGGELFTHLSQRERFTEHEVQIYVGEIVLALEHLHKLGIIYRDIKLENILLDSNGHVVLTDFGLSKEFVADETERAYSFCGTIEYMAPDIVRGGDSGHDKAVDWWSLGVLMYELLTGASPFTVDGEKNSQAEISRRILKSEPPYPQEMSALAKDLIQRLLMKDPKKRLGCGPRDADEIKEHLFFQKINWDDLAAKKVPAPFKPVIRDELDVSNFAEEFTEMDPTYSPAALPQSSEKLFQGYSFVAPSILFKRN
T32 sequence (P50750 whole entry): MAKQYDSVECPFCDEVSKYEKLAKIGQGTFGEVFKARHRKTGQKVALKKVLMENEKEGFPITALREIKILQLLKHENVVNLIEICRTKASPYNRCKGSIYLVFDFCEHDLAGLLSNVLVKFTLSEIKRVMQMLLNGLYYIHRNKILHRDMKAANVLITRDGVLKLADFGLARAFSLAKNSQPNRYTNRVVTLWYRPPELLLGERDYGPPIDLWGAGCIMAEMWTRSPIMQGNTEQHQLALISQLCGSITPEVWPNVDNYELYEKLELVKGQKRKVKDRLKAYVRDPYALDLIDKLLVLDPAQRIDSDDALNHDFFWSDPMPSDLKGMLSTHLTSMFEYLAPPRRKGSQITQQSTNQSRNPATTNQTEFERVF
T34 sequence (P42336 whole entry H1047Y): as the sequence (P42336 whole entry H1047L) above, with L1047Y counted along it
T9 sequence (P42336 whole entry): as the sequence (P42336 whole entry H1047L) above, with L1047H counted along it
T19 sequence (P10721 26-976 D816V): as the sequence (P10721 26-976) above, with D791V counted along it

CN1CCC(CNc2ccc3ncc(C(=O)Nc4cccc(OC(F)(F)F)c4)n3n2)CC1 [Cpd 2]
remaining binding at 1 µM (FGFR1): 100% | remaining binding at 1 µM (PIK3CG): 100% | remaining binding at 1 µM (ARK5): 88% | remaining binding at 1 µM (RPS6KA5(KD1-N-t.)): 100% | remaining binding at 1 µM (PDGFRB): 92% | remaining binding at 1 µM (MERTK): 88% | remaining binding at 1 µM (ASK1): 100% | remaining binding at 1 µM (NEK7): 92% | remaining binding at 1 µM (PIK3CA): 100% | remaining binding at 1 µM (SNARK): 89% | remaining binding at 1 µM (NEK1): 99% | remaining binding at 1 µM (EPHA8): 100% | remaining binding at 1 µM (EPHA1): 100% | remaining binding at 1 µM (PIK3CA(H1047L)): 93% | remaining binding at 1 µM (CAMK2G): 100% | remaining binding at 1 µM (LIMK1): 79% | remaining binding at 1 µM (MKK7): 100% | remaining binding at 1 µM (S6K1): 93% | remaining binding at 1 µM (KIT(D816V)): 89% | remaining binding at 1 µM (NEK10): 85% | remaining binding at 1 µM (RSK4(KD1-N-t.)): 92% | remaining binding at 1 µM (PLK4): 82% | remaining binding at 1 µM (EGFR(S752-I759del)): 97% | remaining binding at 1 µM (HIPK3): 100% | remaining binding at 1 µM (CDK4-cyclinD1): 100% | remaining binding at 1 µM (PRKX): 100% | remaining binding at 1 µM (IRAK3): 100% | remaining binding at 1 µM (TAOK1): 82% | % Ctrl (FLT3(ITD,D835V)): 9.1% | remaining binding at 1 µM (PRKCI): 85% | remaining binding at 1 µM (FES): 87% | remaining binding at 1 µM (STK16): 96% | remaining binding at 1 µM (CDK9): 98% | remaining binding at 1 µM (PRKCD): 80% | remaining binding at 1 µM (PIK3CA(H1047Y)): 96% | remaining binding at 1 µM (AKT2): 100% | remaining binding at 1 µM (MEK4): 100% | remaining binding at 1 µM (PKAC-beta): 88% | remaining binding at 1 µM (KIT-autoi.): 100% | remaining binding at 1 µM (MLK3): 100% | remaining binding at 1 µM (IKK-epsilon): 100%

From PMC7407272, “Induction of Lysosome Membrane Permeabilization as a Therapeutic Strategy to Target Pancreatic Cancer Stem Cells” (Cancers, 2020)
